Measured values from ChEMBL document CHEMBL1781952, “Hippolides A-H, acyclic manoalide derivatives from the marine sponge Hippospongia lachne” (J Nat Prod, 2011).

Columns and labels:
HeLa = test: Cytotoxicity against human HeLa cells after 48 hrs by MTT assay; type: functional, cell-based
[1] = target: Protein kinase C gamma type (Homo sapiens, UniProt P05129); test: Binding affinity at PKCgamma after 1 hr by luminescent kinase assay
A549 = test: Cytotoxicity against human A549 cells after 48 hrs by MTT assay; type: functional, cell-based; conditions: A549, 48 h
HCT-116 = test: Cytotoxicity against human HCT116 cells after 48 hrs by MTT assay; type: functional, cell-based; conditions: HCT-116, 48 h
[2] = target: T1, Tyrosine-protein phosphatase non-receptor type 1 (Homo sapiens, UniProt P18031); test: Inhibition of recombinant PTP1B catalytic domain using pNPP as substrate assessed as pNP release
T1 sequence (P18031 whole entry): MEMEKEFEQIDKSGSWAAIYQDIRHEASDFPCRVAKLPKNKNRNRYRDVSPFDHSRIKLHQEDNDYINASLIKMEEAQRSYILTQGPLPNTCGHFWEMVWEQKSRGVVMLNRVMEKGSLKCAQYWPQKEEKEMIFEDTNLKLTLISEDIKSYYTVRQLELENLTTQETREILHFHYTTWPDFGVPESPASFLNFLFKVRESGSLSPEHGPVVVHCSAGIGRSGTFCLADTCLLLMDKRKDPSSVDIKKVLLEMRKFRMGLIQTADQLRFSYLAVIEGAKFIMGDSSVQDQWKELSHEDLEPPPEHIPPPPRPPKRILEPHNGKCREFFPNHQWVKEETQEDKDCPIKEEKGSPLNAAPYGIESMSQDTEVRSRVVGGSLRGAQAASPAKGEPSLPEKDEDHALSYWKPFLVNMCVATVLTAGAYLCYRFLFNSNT

[3] = target: Protein kinase C alpha type (Homo sapiens, UniProt P17252); test: Binding affinity at PKCalpha after 1 hr by luminescent kinase assay

IC50 [1] [µM]	IC50 [2] [µM]	IC50 [3] [µM]	SMILES	IC50 (HeLa) [nM]	IC50 (A549) [nM]	IC50 (HCT-116) [µM]
62	23.8		CC(C)=CCC/C(C)=C/CC/C(C)=C/CCC1=CC[C@H]([C@@H]2CC(=O)NC2=O)O[C@@H]1O [HIPPOLIDE A]	48	52.2	9.78
	39.7		CO[C@H]1O[C@@H]([C@@H]2CC(=O)NC2=O)CC=C1CC/C=C(\C)CC/C=C(\C)CCC=C(C)C [HIPPOLIDE B]			35.1
		40.3	CC(C)=CCC/C(C)=C/CC/C(C)=C/CC/C(=C\C[C@H]1OC(=O)C=C1CO)CO [HIPPOLIDE E]			
